Experimental data published in ChEMBL document CHEMBL1157418, “Synthesis and antitumor activity evaluations of albumin-binding prodrugs of CC-1065 analog” (Bioorg Med Chem, 2008).
Active and inactive are the calls of the source. The rule behind the calls is not given here.

Key:
SK-OV-3 [1] = test: Anticancer activity in CD1 mouse xenografted with human SKOV3 cells assessed as weight change at 25 mg/kg, ip; type: functional; details: route intraperitoneal
SK-OV-3 [2] = test: Anticancer activity in CD1 mouse xenografted with human SKOV3 cells assessed as tumor growth inhibition at 25 mg/kg, ip; type: functional; details: SK-OV-3, ip, route intraperitoneal, read-out: TGI
L1210 [3] = test: Antitumor activity against mouse L1210 cells; type: functional, cell-based
MC-38 [4] = test: Antitumor activity in BDF1 mouse bearing colon 38 cells assessed as tumor growth inhibition at 70 mg/kg, iv daily 4 times for 3 days; type: functional; details: MC-38, 72 h, read-out: TGI
MC-38 [5] = test: Antitumor activity in BDF1 mouse bearing colon 38 cells assessed as maximum weight loss at 70 mg/kg, iv daily 4 times for 3 days; type: functional
MC-38 [6] = test: Antitumor activity in BDF1 mouse bearing colon 38 cells assessed as cell death at 70 mg/kg, iv daily 4 times for 3 days; type: functional
L1210 [7] = test: Antitumor activity against mouse L1210 cells assessed as inhibition of [3H]thymidine uptake after 48 hrs; type: functional, cell-based
SK-OV-3 [8] = test: Antitumor activity against human SKOV3 cells assessed as inhibition of [3H]thymidine uptake after 72 hrs; type: functional, cell-based
MC-38 [9] = test: Antitumor activity in BDF1 mouse bearing colon 38 cells assessed as tumor growth inhibition at 0.05 mg/kg, iv daily 4 times for 3 days; type: functional; details: MC-38, 72 h, read-out: TGI
MC-38 [10] = test: Antitumor activity in BDF1 mouse bearing colon 38 cells assessed as maximum weight loss at 0.05 mg/kg, iv daily 4 times for 3 days; type: functional
L1210 [11] = test: Cell cycle arrest in mouse L1210 cells by increase in accumulation at G2/M phase at 0.01-0.1 ug/mL after 24 hrs by flow cytometry; type: functional, cell-based
L1210 [12] = test: Cell cycle arrest in mouse L1210 cells by increase in accumulation at S phase at 0.1 ug/mL after 3 hrs by flow cytometry relative to control; type: functional, cell-based
L1210 [13] = test: Cell cycle arrest in mouse L1210 cells by increase in accumulation at S phase at 0.1 ug/mL after 12 hrs by flow cytometry; type: functional, cell-based
MC-38 [14] = test: Antitumor activity in BDF1 mouse bearing colon 38 cells assessed as cell death at 0.05 mg/kg, iv daily 4 times for 3 days; type: functional
L1210 [15] = test: Cell cycle arrest in mouse L1210 cells by accumulation at S phase at 0.1 ug/ml after 24 hrs by flow cytometry; type: functional, cell-based
L1210 [16] = test: Cell cycle arrest in mouse L1210 cells by accumulation at G2/M phase at 0.1 ug/ml after 24 hrs by flow cytometry; type: functional, cell-based
L1210 [17] = test: Cell cycle arrest in mouse L1210 cells by decrease in accumulation at G1 phase at 0.01-0.1 ug/mL after 24 hrs by flow cytometry; type: functional, cell-based
L1210 [18] = test: Cell cycle arrest in mouse L1210 cells by increase in accumulation at S phase at 0.01-0.1 ug/mL after 24 hrs by flow cytometry; type: functional, cell-based
L1210 [19] = test: Antitumor activity in BDF1 mouse bearing mouse L1210 cells assessed as increase of life span at 0.4 mg/kg, iv; type: functional
L1210 [20] = test: Antitumor activity in BDF1 mouse bearing mouse L1210 cells assessed as increase of life span at 0.2 mg/kg, iv; type: functional
L1210 [21] = test: Antitumor activity in BDF1 mouse bearing mouse L1210 cells assessed as increase of life span at 0.1 mg/kg, iv; type: functional
L1210 [22] = test: Antitumor activity in BDF1 mouse bearing mouse L1210 cells assessed as increase of life span at 0.05 mg/kg, iv; type: functional
MC-38 [23] = test: Antitumor activity in BDF1 mouse bearing colon 38 cells assessed as tumor growth inhibition at 0.3 mg/kg, iv daily 4 times for 2 days; type: functional; details: MC-38, 48 h, read-out: TGI
MC-38 [24] = test: Antitumor activity in BDF1 mouse bearing colon 38 cells assessed as tumor growth inhibition at 0.15 mg/kg, iv daily 4 times for 3 days; type: functional; details: MC-38, 72 h, read-out: TGI
MC-38 [25] = test: Antitumor activity in BDF1 mouse bearing colon 38 cells assessed as maximum weight loss at 0.3 mg/kg, iv daily 4 times for 2 days; type: functional
MC-38 [26] = test: Antitumor activity in BDF1 mouse bearing colon 38 cells assessed as maximum weight loss at 0.15 mg/kg, iv daily 4 times for 3 days; type: functional
MC-38 [27] = test: Antitumor activity in BDF1 mouse bearing colon 38 cells assessed as cell death at 0.3 mg/kg, iv daily 4 times for 2 days; type: functional
[28] = Antitumor activity in BALB/c mouse bearing JC cells assessed as maximum weight loss at 0.20 mg/kg, iv daily 4 times for 3 days; type: functional; details: dose 0.2 mg/kg
MC-38 [29] = test: Antitumor activity in BDF1 mouse bearing colon 38 cells assessed as cell death at 0.15 mg/kg, iv daily 4 times for 3 days; type: functional
[30] = Antitumor activity in BALB/c mouse bearing JC cells assessed as tumor growth inhibition at 0.25 mg/kg, iv daily 4 times for 2 days; type: functional; details: 48 h, read-out: TGI
[31] = Antitumor activity in BALB/c mouse bearing JC cells assessed as cell death at 0.25 mg/kg, iv daily 4 times for 2 days; type: functional
[32] = Antitumor activity in BALB/c mouse bearing JC cells assessed as maximum weight loss at 0.25 mg/kg, iv daily 4 times for 2 days; type: functional
[33] = Antitumor activity in BALB/c mouse bearing JC cells assessed as tumor growth inhibition at 0.20 mg/kg, iv daily 4 times for 3 days; type: functional; details: 72 h, read-out: TGI
[34] = Antitumor activity in BALB/c mouse bearing JC cells assessed as cell death at 0.20 mg/kg, iv daily 4 times for 3 days; type: functional; details: dose 0.2 mg/kg
[35] = Antitumor activity in BALB/c mouse bearing JC cells assessed as tumor growth inhibition at 0.16 mg/kg, iv daily 4 times for 3 days; type: functional; details: 72 h, read-out: TGI
[36] = Antitumor activity in BALB/c mouse bearing JC cells assessed as cell death at 0.16 mg/kg, iv daily 4 times for 3 days; type: functional
[37] = Antitumor activity in BALB/c mouse bearing JC cells assessed as maximum weight loss at 0.16 mg/kg, iv daily 4 times for 3 days; type: functional
SK-OV-3 [38] = test: Anticancer activity in CD1 mouse xenografted with human SKOV3 cells assessed as weight change at 0.13 mg/kg, iv; type: functional
SK-OV-3 [39] = test: Anticancer activity in CD1 mouse xenografted with human SKOV3 cells assessed as tumor growth inhibition at 0.13 mg/kg, iv; type: functional; details: read-out: TGI
MC-38 [40] = test: Antitumor activity in BDF1 mouse bearing colon 38 cells assessed as tumor growth inhibition at 100 mg/kg, iv daily 4 times for 3 days; type: functional; details: MC-38, 72 h, read-out: TGI
MC-38 [41] = test: Antitumor activity in BDF1 mouse bearing colon 38 cells assessed as maximum weight loss at 100 mg/kg, iv daily 4 times for 3 days; type: functional
MC-38 [42] = test: Antitumor activity in BDF1 mouse bearing colon 38 cells assessed as cell death at 100 mg/kg, iv daily 4 times for 3 days; type: functional
L1210 [43] = test: Antitumor activity in BDF1 mouse bearing mouse L1210 cells assessed as increase of life span at 10 mg/kg, iv; type: functional
L1210 [44] = test: Cell cycle arrest in mouse L1210 cells by accumulation at G2/M phase at 1 ug/ml after 12 hrs by flow cytometry; type: functional, cell-based
[45] = Antitumor activity in BALB/c mouse bearing JC cells assessed as tumor growth inhibition at 8.0 mg/kg, iv daily 4 times for 3 days; type: functional; details: 72 h, read-out: TGI
[46] = Antitumor activity in BALB/c mouse bearing JC cells assessed as cell death at 8.0 mg/kg, iv daily 4 times for 3 days; type: functional
[47] = Antitumor activity in BALB/c mouse bearing JC cells assessed as maximum weight loss at 8.0 mg/kg, iv daily 4 times for 3 days; type: functional
SK-OV-3 [48] = test: Anticancer activity in CD1 mouse xenografted with human SKOV3 cells assessed as weight change at 5 mg/kg, iv; type: functional
SK-OV-3 [49] = test: Anticancer activity in CD1 mouse xenografted with human SKOV3 cells assessed as tumor growth inhibition at 5 mg/kg, iv; type: functional; details: read-out: TGI

CC(=O)O[C@H]1C(=O)[C@@]2(C)[C@H]([C@H](OC(=O)c3ccccc3)[C@]3(O)C[C@H](OC(=O)[C@H](O)[C@@H](NC(=O)c4ccccc4)c4ccccc4)C(C)=C1C3(C)C)[C@]1(OC(C)=O)CO[C@@H]1C[C@@H]2O [PACLITAXEL]
Activity (SK-OV-3 [1]): -1% | inhibition in vivo at 25 mg/kg (SK-OV-3 [2]): 22%

CC/C=C\C/C=C\C/C=C\C/C=C\C/C=C\C/C=C\CCC(=O)O [DOCONEXENT]
IC50 (L1210 [3]): 13 nM

O=c1[nH]cc(F)c(=O)[nH]1 [FLUOROURACIL]
inhibition in vivo at 70 mg/kg (MC-38 [4]): 95% | Activity (MC-38 [5]): -7% | LCK (MC-38 [6]): 1.1

O=C(Nc1ccc2[nH]c(C(=O)N3C[C@@H](CCl)c4c3cc(O)c3ccccc43)cc2c1)c1cc2cc(F)ccc2[nH]1
IC50 (L1210 [7]): 0.17 nM | IC50 (SK-OV-3 [8]): 14 nM | inhibition in vivo at 0.05 mg/kg (MC-38 [9]): 76% | Activity (MC-38 [10]): -7% | IC50 (L1210 [3]): 0.29 nM | Activity (L1210 [11]): Active | Activity (L1210 [12]): Active | Activity (L1210 [13]): Active | LCK (MC-38 [14]): 0.68 | Activity (L1210 [15]): Active | Activity (L1210 [16]): Active | Activity (L1210 [17]): Active | Activity (L1210 [18]): Active

Cc1c[nH]c2c1[C@@]13C[C@@H]1CN(C(=O)c1cc4cc(NC(=O)c5cc6ccccc6o5)ccc4[nH]1)C3=CC2=O
Activity (L1210 [15]): Active | Activity (L1210 [16]): Active

O=C(CCCCCN1C(=O)C=CC1=O)Oc1cc2c(c3ccccc13)[C@H](CCl)CN2C(=O)c1cc2cc(NC(=O)c3cc4cc(F)ccc4[nH]3)ccc2[nH]1
IC50 (L1210 [7]): 25 nM | IC50 (SK-OV-3 [8]): 34 nM | Activity (L1210 [19]): 133% | Activity (L1210 [20]): 107% | Activity (L1210 [21]): 51% | Activity (L1210 [22]): 40% | inhibition in vivo at 0.3 mg/kg (MC-38 [23]): 99% | inhibition in vivo at 0.15 mg/kg (MC-38 [24]): 99% | Activity (MC-38 [25]): -25% | Activity (MC-38 [26]): -10% | LCK (MC-38 [27]): 2.6 | Activity (L1210 [11]): Active | Activity (L1210 [12]): Active | Activity (L1210 [13]): Active | Activity [28]: -23% | LCK (MC-38 [29]): 2.3 | inhibition in vivo at 0.25 mg/kg [30]: 98% | LCK [31]: 2 | Activity [32]: -21% | inhibition in vivo at 0.2 mg/kg [33]: 98% | LCK [34]: 1.9 | inhibition in vivo at 0.16 mg/kg [35]: 93% | LCK [36]: 1.5 | Activity [37]: -19% | Activity (SK-OV-3 [38]): -3% | inhibition in vivo at 0.13 mg/kg (SK-OV-3 [39]): 52% | Activity (L1210 [15]): Active | Activity (L1210 [16]): Active | Activity (L1210 [17]): Active | Activity (L1210 [18]): Active

CCc1c2c(nc3ccc(OC(=O)N4CCC(N5CCCCC5)CC4)cc13)C1CC3=C(COC(=O)[C@]3(O)CC)C(=O)N1C2 (stereo partly drawn)
inhibition in vivo at 100 mg/kg (MC-38 [40]): 96% | Activity (MC-38 [41]): -7% | LCK (MC-38 [42]): 1.7

CCCCCC(=O)O [HEXANOATE]
IC50 (L1210 [3]): 4.6 nM

COc1cccc2c1C(=O)c1c(O)c3c(c(O)c1C2=O)C[C@@](O)(C(=O)CO)C[C@@H]3O[C@H]1C[C@H](N)[C@H](O)[C@H](C)O1 [DOXORUBICIN]
IC50 (L1210 [7]): 182 nM | Activity (L1210 [43]): 85% | Activity (L1210 [44]): Active | inhibition in vivo at 8 mg/kg [45]: 82% | LCK [46]: 0.78 | Activity [47]: -25% | Activity (SK-OV-3 [48]): -4% | inhibition in vivo at 5 mg/kg (SK-OV-3 [49]): 39%
